The text below walks through data of patent publication US4381301A, “Substituted tricyclic thieno compounds, their synthesis, their use, their compositions and their medicaments” (BYK Gulden Lomberg Chemische Fabrik GmbH, priority 1980, dated 1983).

The nature of series [1]: Antiulcerogenic (protective) action on the stomach, so-called Shay rat (pylorus ligature + acetylsalicylic acid), ulcer index. The conditions noted are these: rat, in vivo; LD50 i.v. mice / ED50 p.o. rats; read-out: TQ LD50/ED50 (therapeutic quotient). It counts as in vivo. Here is the method:
(§1) ED50 = dose which reduces the ulcer index by 50% in the treated grou
(§2) compared with the control group
(§3) The antiulcerogenic action was tested in accordance with the method using the so-called Shay rat:
(§4) Rats (female, 180 to 200 g, 4 animals per cage on a high grid) which had been fasted for 24 hours were subjected to ulcer provocation by pylorus ligature (under diethyl ether anaesthesia) and oral administration of 100 mg/10 ml/kg of acetylsalicylic acid. The substances to be tested are administered orally (10 ml/kg) 1 hour before the pylorus ligature. The wound is closed by means of Michel clamps. 4 hours thereafter, the animals are killed under ether anaesthesia by atlas dislocation, and the stomach is removed. The stomach is opened longitudinally and fixed to a cork tile after the amount of gastric juice secreted (volume) has been determined; the number and size (=diameter) of ulcers present are determined with a stereomicroscope with 10-fold magnification. The product of the degree of severity (according to the following rating scale) and the number of ulcers serves as the individual ulcer index. […]
(§5) ______________________________________
(§6) The reduction in the average ulcer index of each treated group compared with that of the control group (=100%) serves as a measure of the antiulcerogenic effect. The ED50 designates the dose which reduces the average ulcer index by 50%.

Series [2] concerns stomach (Shay rat, gastric ulcers). The series is described as above. It is filed as in vivo. The conditions noted are these: for ED50: Rattus norvegicus, po, peroral administration to rats, 1 hour before pylorus ligature, dose which reduces the ulcer index by 50% compared with control; for dose/action curve (antiulcerogenic action): compound 1 even at 300 mg/kg. How it is done: as §1, §2, §3, §4, §5, §6

Another series concerns Gastric secretion. The series can be described thus: Inhibition of gastric secretion in the Shay rat. It counts as in vivo. The conditions noted are these: in rats, 4 hours after administration of the antiulcerogenic ED50. Here is the method:
^(+) % inhibition = inhibition of the gastric secretion (in %) 4 hour
after administration of the antiulcerogenic ED50
Rats (female, 180 to 200 g, 4 animals per cage on a high grid) which had been fasted for 24 hours were subjected to ulcer provocation by pylorus ligature (under diethyl ether anaesthesia) and oral administration of 100 mg/10 ml/kg of acetylsalicylic acid. The substances to be tested are administered orally (10 ml/kg) 1 hour before the pylorus ligature. The wound is closed by means of Michel clamps. 4 hours thereafter, the animals are killed under ether anaesthesia by atlas dislocation, and the stomach is removed. The stomach is opened longitudinally and fixed to a cork tile after the amount of gastric juice secreted (volume) has been determined; the number and size (=diameter) of ulcers present are determined with a stereomicroscope with 10-fold magnification. The product of the degree of severity (according to the following rating scale) and the number of ulcers serves as the individual ulcer index.

Series [3] can be described thus: Determination of acute toxicity (LD50) in mice. The following applies: mouse, in vivo; intravenous administration to mice; 7 days observation. How it is done: LD50 = dose at which 50% of the animals
The toxicity investigations are carried out on female NMRI mice (body weight: 22 to 26 g). The animals (5 animals per dose) receive feed and water ad libitum. Various doses of the substances are administered intravenously (injection time: 1 minute). The observation period is 7 days. The LD50 (the dose at which 50% of the animals die) is determined by means of linear regression.

For the molecule `CN1CCN(CC(=O)N2c3ccccc3NC(=O)c3cscc32)CC1` [compound 2, 9,10-dihydro-4-[(4-methylpiperazin-1-yl)acetyl]-4H-thieno[3,4-b][1,5]benzodiazepin-10-one], in series [1], the selectivity ratio stood at 76. In series [2] (10 mg/kg, oral, rats), the “inhibition effects (antiulcerogenic action)” value is reported as “up to 95%”. In addition, the ED50 (as a rule, the dose that gives a 50% effect, or the effect in half of the subjects) in series [2] was determined as 2.5 mg/kg. Besides, the “dose/action curve (antiulcerogenic action)” value in series [2] (oral, rats) is listed as “strictly dependent on the dose”. Besides, in the series on Gastric secretion, the “Gastric secretion % inhibition” value was found to be 35%. In addition, the 50% lethal dose (LD50) (usually the dose at which mortality reaches 50%) at 168 h in series [3] is 190 mg/kg.

Turning to `CC1(C)[C@@H](OC(=O)CCC(=O)O)CC[C@]2(C)[C@H]3C(=O)C=C4[C@@H]5C[C@@](C)(C(=O)O)CC[C@]5(C)CC[C@@]4(C)[C@]3(C)CC[C@@H]12` [compound 1, carbenoxolone, reference compound], the selectivity ratio in series [1] was 4.1. Besides, the ED50 in series [2] was about 70 mg/kg. In addition, in series [2] (oral, rats), the “dose/action curve (antiulcerogenic action)” value was “very severely flattened so that no substantial increase in the ulcerogenic action can be achieved even at 300 mg/kg”. In the series with Gastric secretion, the “Gastric secretion % inhibition” value amounted to 7%.
